Test results taken from US12195427B2, “MASP-2 inhibitors and methods of use” (priority 2018, dated 2025).

What was measured:
[1] = tested on: Lectin Pathway; test: Lectin Pathway Activation Assay in Human Serum (mannan-coated ELISA, C3c detection); assay type: biochemical; conditions: 1% human serum
Experimental: Microtiter ELISA plate was coated with mannan from Saccharomyces cerevisiae (Sigma-Aldrich, M7504) for overnight at 4° C. in coating buffer [15 mM Na2CO3, 35 mM NaHCO3].

[2] = biological target: MASP-2 CCP2-SP (Homo sapiens (Human), UniProt O00187); test: MASP-2 co-crystallization, X-ray crystallography and structure analysis (H-bonds, van der Waals contacts); design: van der Waals contact distance, MASP-2 HIS 483 atom CD2 / van der Waals contact distance, MASP-2 HIS 483 atom NE2 / van der Waals contact distance, SER 654 C to compound atom / van der Waals contact distance, SER 654 O to compound atom / van der Waals contact distance, TRP 655 C to compound atom / van der Waals contact distance, MASP-2 GLY 528 atom CA / van der Waals contact distance TRP 655 atom CZ3 / van der Waals contact distance TRP 655 atom N / van der Waals contact distance TRP 655 atom CE3 / van der Waals contact distance GLY 656 atom C / van der Waals contact distance GLY 656 atom CA / van der Waals contact distance GLY 656 atom O / van der Waals contact distance, MASP-2 TYR 607 atom CD1 / van der Waals contact distance, MASP-2 PRO 606 atom O / d(C3,CA1) / d(CA1,N1)2 / d(H4,O1) / d(H4,O2) / d(O1,O2) / d(CA1,O2) / d(CA6,O1) / d(CA6,O2) / d(CA1,C5) / d(O2,H3) / d(N2,C2) / d(CA5,N2) / d(N2,C4) / d(N2,C6) / d(N2,CA3) / d(N2,O3) / d(O4,H2): unit not given beside the values; conditions: for H-bond distance to MASP-2 GLY 656 atom N: GLY 656 N; for H-bond distance to MASP-2 GLY 656 atom O: GLY 656 O; for H-bond distance to MASP-2 SER 654 atom O: SER 654 O; for H-bond distance to MASP-2 SER 657 atom O: SER 657 O; for van der Waals contact distance SER 657 atom C: MASP-2 SER 657 C, columns c12-c13 (inferred)
Method in brief: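 Human MASP-2 CCP2-SP, untagged or 6His-tagged, was expressed in E. coli and crystallized. Crystals were soaked with inhibitor in crystallization solution, flash-cooled in liquid nitrogen, and diffracted with synchrotron X-rays (wavelength 1.0). Structures were solved by molecular replacement from 1Q3X and partially refined.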

[3] = biological target: MASP-2 (CCP1-CCP2-SP) (Homo sapiens (Human), UniProt O00187); test: Enzymatic Assay for MASP-2 (fluorogenic substrate); assay type: biochemical
MASP-2 (CCP1-CCP2-SP), sequence (O00187 445-686): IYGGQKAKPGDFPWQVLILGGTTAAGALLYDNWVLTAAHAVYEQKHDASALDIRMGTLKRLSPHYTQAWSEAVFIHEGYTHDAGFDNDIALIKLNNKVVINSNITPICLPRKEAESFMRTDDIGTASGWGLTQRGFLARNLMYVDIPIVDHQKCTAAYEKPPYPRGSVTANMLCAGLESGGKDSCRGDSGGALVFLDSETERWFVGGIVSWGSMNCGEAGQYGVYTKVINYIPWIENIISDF

MASP-2 CCP2-SP, sequence (O00187 445-686): as above
MASP-2 CCP2-SP, sequence (O00187 364-432 partner): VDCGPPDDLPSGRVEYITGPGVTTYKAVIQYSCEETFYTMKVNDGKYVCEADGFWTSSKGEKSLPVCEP

C[C@H](NC(=O)c1cc(-c2ccccc2)c[nH]1)C(=O)NCc1ccc(C(=N)N)cc1 [compound 1030]
IC50 [1]: 0.5 to 5 µM
H-bond distance to MASP-2 GLY 656 atom N ([2]; Table A1 (H-Bonds)): 3.12
H-bond distance to MASP-2 GLY 656 atom O ([2]; Table A1 (H-Bonds)): 2.82
H-bond distance to MASP-2 SER 628 atom OG ([2]; Table A1 (H-Bonds), SER 628 OG): 3.17
H-bond distance to MASP-2 SER 654 atom O ([2]; Table A1 (H-Bonds)): 2.82
H-bond distance to MASP-2 SER 657 atom O ([2]; Table A1 (H-Bonds)): 2.91
van der Waals contact distance, MASP-2 HIS 483 atom CD2 ([2]; Table A2-1): 3.61
van der Waals contact distance, MASP-2 amino acid atom to compound atom ([2]; Table A2-9 second part, ARG 630, AA atoms N, NE, NH1): 3.83
van der Waals contact distance GLY 656 atom C ([2]; Table A2-13, MASP-2 GLY 656 C): 3.73
van der Waals contact distance GLY 656 atom CA ([2]; Table A2-13, MASP-2 GLY 656 CA): 3.86
van der Waals contact distance TRP 655 atom N ([2]; Table A2-13, MASP-2 TRP 655 N): 3.81
van der Waals contact distance GLY 656 atom N ([2]; Table A2-14, MASP-2 GLY 656 N): 3.78
van der Waals contact distance SER 657 atom C ([2]; Table A2-14): 3.82

C[C@H](NC(=O)[C@H]1C[C@@H](c2ccccc2)CN1)C(=O)NCc1ccc2c(N)nccc2c1 [compound 1089]
H-bond distance to MASP-2 ASP 627 atom OD2 ([2]; Table A1 (H-Bonds), ASP 627 OD2): 2.8
H-bond distance to MASP-2 GLY 656 atom N ([2]; Table A1 (H-Bonds)): 3.3
H-bond distance to MASP-2 GLY 656 atom O ([2]; Table A1 (H-Bonds)): 2.82
H-bond distance to MASP-2 SER 654 atom O ([2]; Table A1 (H-Bonds)): 2.93
H-bond distance to MASP-2 SER 657 atom O ([2]; Table A1 (H-Bonds)): 2.93
van der Waals contact distance, MASP-2 HIS 483 atom CD2 ([2]; Table A2-1): 3.71
van der Waals contact distance, MASP-2 HIS 483 atom NE2 ([2]; Table A2-1): 3.83
van der Waals contact distance, MASP-2 PRO 606 atom O ([2]; Table A2-4): 3.4
van der Waals contact distance, SER 654 O to compound atom ([2]; Table A2-12): 3.57
van der Waals contact distance TRP 655 atom CE3 ([2]; Table A2-13, MASP-2 TRP 655 CE3, compound atom in line below): 3.59
van der Waals contact distance GLY 656 atom O ([2]; Table A2-14, MASP-2 GLY 656 O): 2.95
van der Waals contact distance SER 657 atom C ([2]; Table A2-14): 3.86
Ki [3]: < 0.5 µM
